Results: ChEMBL document CHEMBL1151488, “Synthesis and biological activity of J-104,118, a novel, potent inhibitor of squalene synthase” (Bioorg Med Chem Lett, 1995)
pIC50: −log10 of the molar value.

Tested on: Mus musculus
Test: Tested for inhibition of cholesterol synthesis by compound after oral administration at 10 mg/kg in mice
Format: functional

Which inhibition in vivo at 10 mg/kg does the source give for `C=C(CCC12OC(C(=O)O)C(O)(C(=O)O)C(C(=O)O)(O1)[C@H](OC(=O)/C=C/[C@@H](C)C[C@@H](C)CC)[C@H]2O)[C@@H](OC(C)=O)[C@H](C)Cc1ccccc1` (some centres not stated) [ZARAGOZIC ACID A] here?
The inhibition in vivo at 10 mg/kg was 38%.

Tested on: Mus musculus
Test: Inhibition of cholesterol synthesis from [14C]acetate expressed as percent reduction in radioactivity in mice after oral administration of 3 mg/kg
Format: functional

For `C[C@H](NC(=O)C[C@@H](CC(=O)O)C(=O)O)[C@@H](Cc1ccc(Cl)c(Cl)c1)c1ccc(-c2ccccc2)c(F)c1`, which Reduction is on record?
Its Reduction is 84%.

Molecular target: T1, Squalene synthase (Homo sapiens, UniProt P37268)
T1 sequence (P37268 whole entry): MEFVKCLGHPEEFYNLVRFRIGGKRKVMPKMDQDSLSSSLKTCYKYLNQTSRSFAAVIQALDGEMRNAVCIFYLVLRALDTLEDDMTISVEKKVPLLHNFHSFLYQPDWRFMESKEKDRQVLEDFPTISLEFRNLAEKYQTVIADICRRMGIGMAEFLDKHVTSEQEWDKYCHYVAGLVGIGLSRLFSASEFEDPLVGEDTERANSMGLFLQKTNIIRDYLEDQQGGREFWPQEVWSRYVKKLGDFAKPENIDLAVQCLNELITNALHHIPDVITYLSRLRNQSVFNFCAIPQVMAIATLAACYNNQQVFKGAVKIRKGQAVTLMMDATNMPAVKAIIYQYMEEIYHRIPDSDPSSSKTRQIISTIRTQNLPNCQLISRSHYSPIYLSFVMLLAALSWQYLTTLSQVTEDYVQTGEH
Test: Inhibitory activity against HepG2 Squalene Synthase (SQS)

With `C[C@@H](NC(=O)C[C@H](CC(=O)O)C(=O)O)[C@H](Cc1ccc(Cl)c(Cl)c1)c1ccc(-c2ccccc2)c(F)c1` as the molecule, how does the pIC50 read?
Its pIC50 is 7.80.

With `C[C@H](NC(=O)CC(CC(=O)O)C(=O)O)[C@@H](Cc1ccc(Cl)c(Cl)c1)c1ccc(-c2ccccc2)c(F)c1` (some centres not stated) as the molecule, how does the pIC50 read?
The pIC50 was less than 6.52.

With `C[C@@H](NC(=O)C[C@H](CC(=O)O)C(=O)O)[C@@H](Cc1ccc(Cl)c(Cl)c1)c1ccc(-c2ccccc2)c(F)c1` as the molecule, how does the pIC50 read?
Its pIC50 is 7.72.

With `C[C@H](NC(=O)C[C@@H](CC(=O)O)C(=O)O)[C@@H](Cc1ccc(Cl)cc1)c1ccc(-c2ccccc2)cc1` as the molecule, how does the pIC50 read?
The pIC50 was 8.49.

With `CC(NC(=O)CC(CC(=O)O)C(=O)O)C(Cc1ccc(Cl)cc1)c1ccc(Cl)cc1` (configuration not stated) as the molecule, how does the pIC50 read?
The pIC50 was 6.18.

With `C[C@@H](NC(=O)CC(CC(=O)O)C(=O)O)[C@H](Cc1ccc(Cl)c(Cl)c1)c1ccc(-c2ccccc2)c(F)c1` (some centres not stated) as the molecule, how does the pIC50 read?
The pIC50 was less than 6.52.

With `C[C@H](NC(=O)C[C@@H](CC(=O)O)C(=O)O)[C@@H](Cc1ccc(Cl)c(Cl)c1)c1ccc(-c2ccccc2)cc1` as the molecule, how does the pIC50 read?
Its pIC50 is 8.92.

With `C[C@H](NC(=O)C[C@@H](CC(=O)O)C(=O)O)[C@@H](Cc1ccc(Cl)c(Cl)c1)c1ccc(-c2ccccc2)c(F)c1` as the molecule, how does the pIC50 read?
Its pIC50 is 9.28.

With `C[C@H](NC(=O)CC(CC(=O)O)C(=O)O)[C@@H](Cc1ccc(Cl)c(Cl)c1)c1ccc(-c2ccccc2)c(F)c1` (single isomer, unassigned) as the molecule, how does the pIC50 read?
Its pIC50 is 9.14.

Tested on: not listed separately
Test: Inhibition of cholesterol synthesis by compound after oral administration at of 10-100 mg/kg/day in marmoset
Format: functional

For `C=C(CCC12OC(C(=O)O)C(O)(C(=O)O)C(C(=O)O)(O1)[C@H](OC(=O)/C=C/[C@@H](C)C[C@@H](C)CC)[C@H]2O)[C@@H](OC(C)=O)[C@H](C)Cc1ccccc1` (some centres not stated) [ZARAGOZIC ACID A], which Reduction is on record?
Its Reduction is 75%.
